Results on 19 compounds are retold here after patent US11993574B2, “Pyrazole and imidazole compounds for inhibition of IL-17 and RORgamma” (REATA PHARMACEUTICALS, INC., priority 2018, dated 2024).

As usually defined, the IC50 is the concentration needed to halve the response being measured.

Format in all cases: cell-based
Assay [1] addresses T1, Human RAR-related Orphan Receptor Gamma (RORγ) (Homo sapiens, UniProt P51449).
T1 sequence (P51449 269-508 limits assumed): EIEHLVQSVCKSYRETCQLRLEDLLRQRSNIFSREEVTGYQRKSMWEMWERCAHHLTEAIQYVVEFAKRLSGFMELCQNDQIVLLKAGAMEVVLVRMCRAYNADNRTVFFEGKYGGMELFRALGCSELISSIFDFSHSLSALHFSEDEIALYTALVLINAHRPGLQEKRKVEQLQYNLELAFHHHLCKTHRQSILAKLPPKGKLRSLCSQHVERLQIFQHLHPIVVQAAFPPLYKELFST
The assay can be described thus: RORγ assay (GAL4-RORγ hybrid luciferase reporter, Indigo Biosciences). The conditions noted are these: inverse-agonist activity, GAL4-RORγ reporter cells, 23 hours. The source says:
B. RORγ Assay and Cell Viability
The RORγ assay system was purchased from Indigo Biosciences. This nuclear receptor assay utilizes a human cell line that has been engineered to express a hybrid form of the Human RAR-related Orphan Receptor Gamma (RORγ) at high levels. The N-terminal DNA binding domain (DBD) of the native RORγ receptor was substituted with the yeast GAL4-DBD to generate the GAL4-RORγ hybrid nuclear receptor. The reporter cell line is transfected with a plasmid that encodes the beetle luciferase gene under the control of the GAL4 upstream activating sequence (UAS). GAL4 binds to the UAS and increases transcription of downstream target genes. The GAL4-RORγ hybrid is constitutively active; therefore, the principle application of this reporter assay system is to screen test compounds to quantify inverse-agonist activities against human RORγ. Because the ligand binding domain (LBD) of RORγ is identical to the LBD of RORγt, this assay is an accurate surrogate for evaluating activity of experimental ligands against RORγt. To assess the RORγ inverse-agonist activity of the test compounds, reporter cells were plated in white 96-well plates in triplicate and were treated with DMSO (vehicle) or test compound (concentration ranges of 7.8-2000 nM) at 37° C. with 5% CO2 in a humidified atmosphere for 23 hours. After this incubation, luciferin was added to the wells and luciferase activity was determined by measuring the luminescence signal using a BMG Pherastar microplate reader. Viability was determined using the Live Cell Multiplex Assay (Indigo Biosciences). Values from test compound samples were normalized to those from DMSO-treated samples. Data were analyzed using GraphPad Prism version 6.00 for Windows (GraphPad Software, La Jolla Calif. USA). A non-linear regression analysis with log (inhibitor) vs. normalized response using a variable slope was applied to fit the data and determine the IC50 values for inhibition of RORγ and cell viability. Inhibition that is closely correlated with reduced viability is considered to be non-specific.
Background: Reporter assays use an easily measured gene product as a stand-in for the process of interest.

The subject of assay [2] is Nrf2 transcription factor. Briefly: AREc32 luciferase reporter assay. Conditions: Homo sapiens; AREc32 cells, 19 hours; concentration required to increase GST ARE luciferase reporter activity by 2-fold; read-out: NRF2 ARE 2-Fold (EC2×). The source says: A. AREc32 Luciferase Reporter Assay
The AREc32 luciferase reporter assay allows for quantitative assessment of the endogenous activity of the Nrt2 transcription factor in cultured mammalian cells. AREc32 cells are derived from MCF-7 human breast carcinoma cells that were stably transfected with a reporter construct that contains the firefly luciferase gene located downstream of eight copies of the rat GSTA2 antioxidant response element (ARE) sequence (Wang et al., 2006; Concept Life Sciences Integrated Discovery and Development Services Ltd (CLSIDDS)). Active Nrf2 binds to the ARE sequences and increases expression of the firefly luciferase gene. To assess the Nrf2-activating potential of the test compounds, AREc32 cells were plated in black […] plates at a density of 20,000 cells per well in triplicate in DMEM+10% FBS+0.8 mg/mL Geneticin and incubated at 37° C. with 5% CO2 in a humidified atmosphere. The next day, cells were treated with DMSO (vehicle) or test compound (concentration ranges of 0.4-200 nM or 3.9-2000 nM) for 19 hours. Luciferase activity was determined using the ONE-Glo Luciferase assay (Promega). The luminescence signal was measured on a BMG Pherastar microplate reader. The mean luminescence value from test compound-treated wells was normalized to that from DMSO-treated wells and was represented as fold-induction. Data were analyzed using GraphPad Prism version 6.00 for Windows, GraphPad Software, La Jolla Calif. USA. A non-linear regression curve with log (agonist) vs. response using a variable slope was used to fit the data. Where applicable, a maximum threshold value of 50-fold over DMSO was set. EC2× values were interpolated from the curve. EC2× corresponds to the concentration of test compound required to increase GST ARE Luciferase reporter activity by 2-fold.

The next assay concerns IL-17A. The assay can be described thus: IL-17 release from differentiated primary human T-cells (IL-17A HTRF assay). The conditions noted are these: primary human CD4+ T cells differentiated into Th17 cells, 45-hour incubation, IL-17A in supernatant; read-out: hIL17 IC50. On the procedure:
C. IL-17 Release from Differentiated Primary Human T-Cells and Cell Viability
Primary human cryopreserved CD4+ T Cells (Lonza) were thawed according to the manufacturer's recommendations and plated either in Lymphocyte Growth Medium-3 (LGM-3) or X-VIVO 20 media (Lonza) in 96-well tissue culture plates at a density of ˜2×10^5 cells per well, and allowed to recover for approximately 4 hours at 37° C. with 5% CO2 in a humidified atmosphere. After the recovery step, DMSO (vehicle) or test compound at doses ranging from 2 to 500 nM or 4 to 1000 nM in a three-fold dilution series was added to the cells. Three replicate wells were tested for each treatment condition. Final DMSO concentration in each well was 0.1%. Immediately after treatment, CD4+ T cells were activated by adding Dynabeads Human T-Activator CD3/CD28 (Life Technologies; bead-to-cell ratio of 1:2.5) and differentiated into Th17 cells by adding a mixture of the following cytokines: transforming growth factor-β (TGF-β, 5 ng/mL), IL-6 (20 ng/mL), IL-23 (20 ng/mL), and IL-1β (10 ng/mL). Undifferentiated control cells received only cytokine IL-2 (50 ng/mL). All human recombinant cytokines were purchased from R&D Systems. Following a 45-hour incubation at 37° C. with 5% CO2 in a humidified atmosphere, the plates were centrifuged for 3 minutes at 250×g, and half of the supernatant was transferred to anew plate to be used in the IL-17A assay (see below). Cell viability was assessed in the original plate using the CyQuant Direct Assay (Life Technologies). CyQuant reagent (an amount equal to 10% of remaining media volume) was added to the wells, and the plates were then incubated at 37° C. for 75 min. Fluorescence was read on a SpectraMax M2e spectrophotometer at 480 nm (excitation) and 535 nm (emission) wavelengths. CyQuant values from test compound samples were normalized to those from DMSO-treated samples. The concentration of IL-17A in the supernatant was measured using the Homogeneous Time-Resolved Fluorescence (HTRF) assay (Cisbio Bioassays) according to the manufacturer's protocol. The assay was performed at room temperature in low volume, solid white 384-well plates (Greiner Bio-One). Samples and standards (serially-diluted human recombinant IL-17A (0 to 5,000 pg/mL concentration range; Cisbio Bioassays) were incubated with the anti-human IL-17A antibody conjugates (the HTRF donor and acceptor pair) for 16 hours and fluorescence was measured using a Pherastar FS microplate reader (BMG Labtech) in the HTRF mode (excitation at 337 nm and emission at 665 nm and 620 nm). IL-17A levels were assessed in duplicate aliquots of supernatant from each well resulting in a total of six readings per test condition. The 665 nm/620 nm signal ratio was calculated and the concentration of IL-17A in each sample was determined by interpolation from the standard curve. The amount of IL-17A from test compound treated samples were normalized to that of the vehicle-treated samples, set to 100%. Data were analyzed using GraphPad Prism (GraphPad Software, La Jolla California USA). Concentrations of test compound were transformed by taking the logarithm of each concentration used. The IC50 values for compound-mediated reduction in IL-17A levels and cell viability were determined by non-linear regression analysis using the log(inhibitor) vs. normalized response with variable slope equation. Inhibition that is closely correlated with reduced viability is considered to be non-specific.
On the technique in general: Time-resolved FRET reads energy transfer from a long-lived donor to a nearby acceptor.

Regarding `C[C@H]1C(=O)C(C#N)=C[C@@]2(C)c3c(c(-c4ccccc4)nn3CC(F)(F)F)CC[C@H]12` [T3], the IC50 in assay [1] is 276 nM; with IL-17A, 92 nM. Besides, the EC (2-fold) in assay [2] was 1.46 µM.
In the same order, the values of `C[C@H]1C(=O)C(C#N)=C[C@@]2(C)c3nn(-c4ccc(-c5ccccc5)cc4)c(-c4cccnc4)c3CC[C@H]12` [T125] are 137 nM, 86 nM and 0.877 µM.
The corresponding values for `CC(C)c1ccc(-n2nc3c(c2-c2ccccc2)CC[C@@H]2[C@@H](C)C(=O)C(C#N)=C[C@@]32C)cc1` [T26] are 104 nM, 61 nM and 0.944 µM.
Regarding `Cc1cc(-c2ccc(-n3nc(-c4cccnc4)c4c3[C@]3(C)C=C(C#N)C(=O)[C@H](C)[C@H]3CC4)cc2)cnn1` [T102], the half-inhibitory concentration (IC50) in assay [1] worked out at 90 nM; with IL-17A it was 56 nM. For the same compound, the EC (2-fold) in assay [2] was determined as 0.918 µM.
In the same order, the values of `C[C@H]1C(=O)C(C#N)=C[C@@]2(C)c3c(c(N4CCOCC4)nn3-c3ccc(-c4ccccc4)cc3)CC[C@H]12` [T77] are 111 nM, 68 nM and 0.908 µM.
Turning to `C[C@H]1C(=O)C(C#N)=C[C@@]2(C)c3nc(-c4cccc(-c5ccnn5C)c4)n(-c4cccc(F)c4)c3CC[C@H]12` [T151], the IC50 in assay [1] was 234 nM; in the assay on IL-17A, 154 nM. The EC (2-fold) in assay [2] was determined as 0.749 µM.
As to `C[C@H]1C(=O)C(C#N)=C[C@@]2(C)c3nc(-c4ccnc5ccccc45)n(-c4cccnc4)c3CC[C@H]12` [T154], the values for the IC50 (in assay [1]; with IL-17A) were 572 nM and 415 nM, respectively. The EC (2-fold) in assay [2] came out at 1.97 µM.
Turning to `C[C@H]1C(=O)C(C#N)=C[C@@]2(C)c3c(c(-c4ccncn4)nn3-c3ccc(-c4cncnc4)cc3)CC[C@H]12` [T50], the IC50 in assay [1] turned out to be 115 nM; with IL-17A it was 326 nM. In addition, in assay [2], the EC (2-fold) is 0.977 µM.
For the compound `C[C@H]1C(=O)C(C#N)=C[C@@]2(C)c3nc(-c4ccc(C5CC5)nc4)n(-c4cccc(F)c4)c3CC[C@H]12` [T142], the 50% inhibitory concentration (IC50) worked out at 76 nM in assay [1] and 156 nM in the assay on IL-17A. The EC (2-fold) in assay [2] came out at 0.861 µM.
The corresponding values for `C[C@H]1C(=O)C(C#N)=C[C@@]2(C)c3c(c(-c4ccncn4)nn3-c3ccc(-c4cccnc4)cc3)CC[C@H]12` [T51] are 48 nM, 91 nM and 0.501 µM.
Consider `C[C@H]1C(=O)C(C#N)=C[C@@]2(C)c3c(c(-c4ccncn4)nn3-c3ccc(-c4cccc(CO)c4)cn3)CC[C@H]12` [T60], for which the values for the IC50 (in assay [1]; with IL-17A) were 101 nM and 141 nM, respectively. The EC (2-fold) in assay [2] was found to be 0.44 µM.
The corresponding values for `C[C@H]1C(=O)C(C#N)=C[C@@]2(C)c3nc(-c4ccnc(C(F)(F)F)c4)n(-c4cccc(F)c4)c3CC[C@H]12` [T141] are 146 nM, 194 nM and 0.892 µM.
The corresponding values for `C[C@H]1C(=O)C(C#N)=C[C@@]2(C)c3c(c(-c4ccc(F)cc4)nn3-c3ccc(-c4cccnn4)cc3)CC[C@H]12` [T178] are 64 nM, 31 nM and 0.342 µM.
In the same order, the values of `Cc1cc(-c2ccc(-n3nc(-c4noc(C)n4)c4c3[C@]3(C)C=C(C#N)C(=O)[C@H](C)[C@H]3CC4)cc2)cnn1` [T110] are 193 nM, 126 nM and 1.31 µM.
For `Cc1noc(C)c1-c1ccc(-n2nc(-c3ccccc3)c3c2[C@]2(C)C=C(C#N)C(=O)[C@H](C)[C@H]2CC3)cc1` [T38], the IC50 came out at 46 nM in assay [1] and 37 nM with IL-17A. Moreover, the EC (2-fold) in assay [2] amounted to 0.215 µM.
The corresponding values for `C[C@H]1C(=O)C(C#N)=C[C@@]2(C)c3nc(-c4ccc(Cl)c(Cl)c4)n(-c4cnn(C)c4)c3CC[C@H]12` [T158] are 124 nM, 240 nM and 1.09 µM.
For `C[C@H]1C(=O)C(C#N)=C[C@@]2(C)c3nn(-c4ccc(-c5ccccc5)cc4)c(-c4ccccc4F)c3CC[C@H]12` [T123], the IC50 in assay [1] was 139 nM; with IL-17A it was 50 nM. The EC (2-fold) in assay [2] turned out to be 1.18 µM.
In the same order, the values of `C[C@H]1C(=O)C(C#N)=C[C@@]2(C)c3c(c(-c4ccccc4F)nn3-c3ccc(-c4ccccc4)cc3)CC[C@H]12` [T66] are 58 nM, 19 nM and 0.128 µM.
In the same order, the values of `C[C@H]1C(=O)C(C#N)=C[C@@]2(C)c3c(c(-c4ccccc4)nn3-c3ccc(-c4ccccc4F)cc3)CC[C@H]12` [T36] are 87 nM, 22 nM and 0.233 µM.
